The record followed here is US20230197192A1, “SELECTING NEOANTIGENS FOR PERSONALIZED CANCER VACCINE” (AMAZON TECHNOLOGIES, INC., priority 2020, published 2023).

Read-outs that look alike come from different tables or passages of the source. Where no end group is shown, it is not given here.

The nature of the data set: Visible dissolution of peptides in DMSO / 0.9% NaCl for pool formulation. The class given is physicochemical. The note with it: for Visual solubility (appearance of the peptide solution): Peptide Synthesis Engineering Run Batch for Sample GGGGG, visual appearance of the peptide solution (Clear / Semi Cloudy / Cloudy). Here is the method:
Groups of peptides are selected and pooled. Up to four (4) pools with not more than (NMT) five (5) peptides in each pool were prepared. Each peptide was dissolved in 5.538% (v/v) DMSO followed by 0.9% NaCl solution, at a concentration of each peptide at 0.4158 mg/mL. Peptides which were visibly dissolved were accepted for that group's pool. Upon successful pooling of all peptides within a group, the pool was filtered through a 0.2 μm Nylon filter. Peptides were shipped in sterile tubes and labeled with Pool name, lot #, components, manufacturing data, quantity/concentration and storage conditions.

[1] abbreviates: Peptide synthesis engineering run batch for sample DDDDD_2020, appearance of the solution.
[2] abbreviates: Peptide synthesis engineering run batch for sample FFFFF, appearance of the solution.

As to RVLIPDLQL [GGGGG.42], the “Visual solubility (appearance of the peptide solution)” value (from here on “Visual solubility”) is on record as “Clear”.

SAGENPLEEEE [DDDDD.43]: the Solubility entry under setting [1] is on record as “Clear”.

For the sequence SAPGSSRLAA [GGGGG.46], the “Visual solubility” value is “Clear”.

SAPGSSRLAAV [GGGGG.36]: the “Visual solubility” value is “Clear”.

As to SAVMQEEI [GGGGG.38], the “Visual solubility” value is “Cloudy”.

Take SLCQAPPL [GGGGG.48]: the “Visual solubility” value is given as “Clear”.

Consider SLLLQEEEL [FFFFF.39], for which, under setting [2], the Solubility result is reported as “Cloudy”.

For SPRVAPGSAPPWPALRSLLH [GGGGG.1], the “Visual solubility” value is “Clear”.

On to SQAGTVTL [DDDDD.31], for which the Solubility result under setting [1] is given as “Clear”.

SSCMGGMNQRPILTIITLED [DDDDD.9]: the Solubility entry was “Cloudy”.

STAPAEATL [GGGGG.44]: the “Visual solubility” value is recorded as “Clear”.

As for STAPAEATLPKPGEAEAP [GGGGG.16], the “Visual solubility” value is recorded as “Clear”.

Turning to TGQDMLAL [FFFFF.36], the Solubility result under setting [2] is recorded as “Clear”.

With TPSAPEGYDLKIGLFLAPRRGSLPD [FFFFF.17], under setting [2], the Solubility result is given as “Clear”.

With TSAPGSSRLAA [GGGGG.47], the “Visual solubility” value was “Clear”.

As to TVDMLQCLRFPGLALPHTRAPSPLG [GGGGG.35], the “Visual solubility” value is recorded as “Clear”.

Consider TWHRGDAL [DDDDD.34], for which the Solubility result under setting [1] is listed as “Clear”.

Take TYPEADSFPSWAAAHRKGSS [DDDDD.20]: the Solubility result is “Clear”.

On to VALSVRPI [GGGGG.37], for which the “Visual solubility” value is “Clear”.

Turning to VDLKFPASVPTGAQDLISKL [GGGGG.25], the “Visual solubility” value was “Clear”.

VGRAWDAITDHLVGLCISKSP [FFFFF.19]: the Solubility result under setting [2] is listed as “Clear”.

As to VLGTSAPGSSRLAAVDLGG [GGGGG.2], the “Visual solubility” value is listed as “Clear”.

On to VSPDIFMQSHL [GGGGG.40], for which the “Visual solubility” value is “Clear”.

For the sequence WLPELPSLPSNGDPPAICE [DDDDD.15], the Solubility entry under setting [1] is recorded as “Clear”.

Regarding YGRTVVPFLVPGTSQLGQ [FFFFF.9], the Solubility entry under setting [2] is “Clear”.

Turning to YIHTSVSQDFSQSVPGTTSSPL [FFFFF.10], under setting [2], the Solubility result is reported as “Clear”.

Consider YKTDLHSL [FFFFF.37], for which the Solubility entry under setting [2] is on record as “Clear”.

In the case of YSGIQESSSASPLSIKKCPI [GGGGG.29], the “Visual solubility” value was “Clear”.
